Reference: patent US20230085307A1, “PYRIDAZINONE COMPOUND AND HERBICIDE” (NISSAN CHEMICAL CORPORATION, priority 2019, published 2023)

Key:
[1] = tested on: velvetleaf; assay: Test Example 4: herbicidal effect by soil treatment (Table 19, symbol M); format: in vivo, velvetleaf (Abutilon theophrasti); conditions: amount of applied herbicide 320 g/ha
Method in brief: (§1)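 Seeds were sown in sterilized diluvial soil and covered with about 1.5 cm of soil. An emulsion formulation diluted with water to a predetermined herbicide amount was sprayed evenly onto the soil surface. Plants grew in a greenhouse at 25° C. to 30° C., and the effect was scored three weeks after application using criteria from an earlier test.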

[2] = tested on: Italian ryegrass; assay: Test Example 5: herbicidal effect by foliage application, plastic box (Table 20, symbol K); format: in vivo, Italian ryegrass (Lolium multiflorum); conditions: for herbicidal effect on K: Italian ryegrass (evaluation grade 0-5): foliage application after 14-day growth
Method in brief: (§2)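 Plants sown in sterilized diluvial soil and grown 14 days in a greenhouse at 25° C to 30° C, then sprayed on the foliage with the compound's emulsion diluted in water to a predetermined herbicide amount. Injury to weeds and crops scored three weeks after application on a visual rating scale.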

[3] = tested on: velvetleaf; assay: Test Example 5: herbicidal effect by foliage application, plastic box (Table 20, symbol M); format: in vivo, velvetleaf (Abutilon theophrasti); conditions: for herbicidal effect on M: velvetleaf (evaluation grade 0-5): foliage application after 14-day growth
Method in brief: as §2

[4] = tested on: rice flat sedge; assay: Test Example 3: herbicidal effect by foliage application, Wagner pot (Table 18, symbol E); format: in vivo, rice flat sedge (Cyperus iria); conditions: for herbicidal effect on rice flat sedge (E): 320 g/ha
Method in brief: (§3)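 Plants were sown in alluvial soil held under 0.1–0.5 cm standing water and grown 14 days in a greenhouse at 25–30 °C. An emulsifiable formulation, water-diluted to the set dose, was then sprayed onto the foliage, and effects were scored three weeks later using previously defined criteria.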

[5] = tested on: lambsquarters; assay: Test Example 4: herbicidal effect by soil treatment (Table 19, symbol O); format: in vivo, lambsquarters (Chenopodium album); conditions: amount of applied herbicide 320 g/ha
Method in brief: as §1

[6] = tested on: Chinese sprangletop; assay: Test Example 3: herbicidal effect by foliage application, Wagner pot (Table 18, symbol D); format: in vivo, chinese sprangletop (Leptochloa chinensis); conditions: for herbicidal effect on Chinese sprangletop (D): 320 g/ha
Method in brief: as §3

[7] = tested on: persian speedwell; assay: Test Example 4: herbicidal effect by soil treatment (Table 19, symbol R); format: in vivo, Persian speedwell (Veronica persica); conditions: amount of applied herbicide 320 g/ha
Method in brief: as §1

[8] = tested on: windgrass; assay: Test Example 5: herbicidal effect by foliage application, plastic box (Table 20, symbol L); format: in vivo, windgrass (Apera spica-venti); conditions: for herbicidal effect on L: windgrass (evaluation grade 0-5): foliage application after 14-day growth
Method in brief: as §2

[9] = tested on: chickweed; assay: Test Example 5: herbicidal effect by foliage application, plastic box (Table 20, symbol P); format: in vivo, common chickweed (Stellaria media); conditions: for herbicidal effect on P: chickweed (evaluation grade 0-5): foliage application after 14-day growth
Method in brief: as §2

[10] = tested on: green foxtail; assay: Test Example 4: herbicidal effect by soil treatment (Table 19, symbol G); format: in vivo, green foxtail (Setaria viridis); conditions: amount of applied herbicide 320 g/ha
Method in brief: as §1

[11] = tested on: barnyard grass; assay: Test Example 5: herbicidal effect by foliage application, plastic box (Table 20, symbol H); format: in vivo, barnyard grass (Echinochloa crus-galli); conditions: for herbicidal effect on H: barnyard grass (evaluation grade 0-5): foliage application after 14-day growth
Method in brief: as §2

[12] = tested on: Italian ryegrass; assay: Test Example 4: herbicidal effect by soil treatment (Table 19, symbol K); format: in vivo, Italian ryegrass (Lolium multiflorum); conditions: amount of applied herbicide 320 g/ha
Method in brief: as §1

[13] = tested on: windgrass; assay: Test Example 4: herbicidal effect by soil treatment (Table 19, symbol L); format: in vivo, windgrass (Apera spica-venti); conditions: amount of applied herbicide 320 g/ha
Method in brief: as §1

[14] = tested on: late watergrass; assay: Test Example 1: herbicidal activity, application before weed generation under submerged conditions (Table 16, symbol A); format: in vivo, late watergrass (Echinochloa oryzicola); conditions: amount of applied herbicide 320 g/ha
Method in brief: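 Emulsion formulation, water-diluted to set dose, was put onto the flooded surface (4 cm depth, alluvial soil) the same day weeds were sown and 2.5-leaf rice transplanted. After 3 weeks at 25-30 °C under glass, each species was rated 0 (≤5% kill) to 5 (≥90% kill).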

[15] = tested on: wild oat; assay: Test Example 4: herbicidal effect by soil treatment (Table 19, symbol I); format: in vivo, wild oat (Avena fatua); conditions: amount of applied herbicide 320 g/ha
Method in brief: as §1

[16] = tested on: oval-leafed pondweed; assay: Test Example 2: herbicidal activity, application during weed generation under submerged conditions (Table 17, symbol C); format: in vivo, oval-leafed pondweed (Monochoria vaginalis); conditions: for herbicidal effect rating, C: oval-leafed pondweed: AAH 320 g/ha, application during weed generation, submerged conditions
Method in brief: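 Effect on each weed is rated three weeks post-treatment, using the same scoring criteria as the preceding test. Plants grow from mixed-sown seed in flooded alluvial soil (4 cm water) at 25° C. to 30° C., and are treated at one to two leaves with diluted emulsion dropped onto the water.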

[17] = 320 g/ha, evaluated three weeks after application
[18] = foliage application, 320 g/ha, evaluated 3 weeks after application
[19] = amount of applied herbicide 320 g/ha
[20] = foliage application, AAH 320 g/ha, evaluated three weeks after application

Compound | Herbicidal effect by soil treatment, M: velvetleaf [1] | herbicidal effect on K: Italian ryegrass (evaluation grade 0-5) [2, 17] | herbicidal effect on M: velvetleaf (evaluation grade 0-5) [3, 17] | herbicidal effect on rice flat sedge (E) [4] | Herbicidal effect by soil treatment, O: lambsquarters [5] | herbicidal effect on Chinese sprangletop (D) [6] | Herbicidal effect by soil treatment, R: persian speedwell [7] | herbicidal effect on L: windgrass (evaluation grade 0-5) [8, 17] | herbicidal effect on P: chickweed (evaluation grade 0-5) [9, 17] | Herbicidal effect by soil treatment, G: green foxtail [10] | herbicidal effect on H: barnyard grass (evaluation grade 0-5) [11, 17] | Herbicidal effect by soil treatment, K: Italian ryegrass [12] | Herbicidal effect by soil treatment, L: windgrass [13] | Herbicidal effect, A: late watergrass [14] | Herbicidal effect by soil treatment, I: wild oat [15] | herbicidal effect rating, C: oval-leafed pondweed [16] | other results
COc1ccc2c(-c3c(OC(=O)C4CCCCC4)c(C)nn(C)c3=O)c(-c3ccccc3OC)sc2c1 [3-156] | 0 (Herbicidal rate of 5% or less (almost no effect)) | 3 (Herbicidal rate of 40% or more and less than 70%) | 5 (Herbicidal rate of 90% or more (almost completely withered)) | 3 (Herbicidal rate of 40% or more and less than 70%) | 0 (Herbicidal rate of 5% or less (almost no effect)) | 4 (Herbicidal rate of 70% or more and less than 90%) | 4 (Herbicidal rate of 70% or more and less than 90%) | 5 (Herbicidal rate of 90% or more (almost completely withered)) | 5 (Herbicidal rate of 90% or more (almost completely withered)) | 0 (Herbicidal rate of 5% or less (almost no effect)) | 5 (Herbicidal rate of 90% or more (almost completely withered)) | 0 (Herbicidal rate of 5% or less (almost no effect)) | 0 (Herbicidal rate of 5% or less (almost no effect)) | 5 (Herbicidal rate of 90% or more (almost completely withered)) | 0 (Herbicidal rate of 5% or less (almost no effect)) | 5 (Herbicidal rate of 90% or more (almost completely withered)) | –
CCSc1ccc(-c2oc3ccc(C)cc3c2-c2c(O)c(C)nn(C)c2=O)cc1 [9-057] | – | – | – | – | – | – | – | – | – | – | – | – | – | 5 (Herbicidal rate of 90% or more (almost completely withered)) | – | – | M: velvetleaf, herbicidal effect grade [1]: 4 (Herbicidal rate of 70% or more and less than 90%); K (Italian ryegrass) herbicidal effect grade [2, 18]: 5 (Herbicidal rate of 90% or more (almost completely withered)); M (velvetleaf) herbicidal effect grade [3, 18]: 5 (Herbicidal rate of 90% or more (almost completely withered)); Herbicidal effect on E (rice flat sedge), foliage application [4, 19]: 5 (Herbicidal rate of 90% or more (almost completely withered)); O: lambsquarters, herbicidal effect grade [5]: 5 (Herbicidal rate of 90% or more (almost completely withered)); Herbicidal effect on D (Chinese sprangletop), foliage application [6, 19]: 3 (Herbicidal rate of 40% or more and less than 70%); R: persian speedwell, herbicidal effect grade [7]: 5 (Herbicidal rate of 90% or more (almost completely withered)); L (windgrass) herbicidal effect grade [8, 18]: 3 (Herbicidal rate of 40% or more and less than 70%); P (chickweed) herbicidal effect grade [9, 18]: 5 (Herbicidal rate of 90% or more (almost completely withered)); G: green foxtail, herbicidal effect grade [10]: 5 (Herbicidal rate of 90% or more (almost completely withered)); H (barnyard grass) herbicidal effect grade [11, 18]: 3 (Herbicidal rate of 40% or more and less than 70%); K: Italian ryegrass, herbicidal effect grade [12]: 5 (Herbicidal rate of 90% or more (almost completely withered)); L: windgrass, herbicidal effect grade [13]: 0 (Herbicidal rate of 5% or less (almost no effect)); I: wild oat, herbicidal effect grade [15]: 0 (Herbicidal rate of 5% or less (almost no effect)); herbicidal effect grade, C: oval-leafed pondweed ([16]; application during weed generation under submerged conditions, amount of applied herbicide 320 g/ha): 4 (Herbicidal rate of 70% or more and less than 90%)
CCCC(=O)Oc1c(C)nn(C)c(=O)c1-c1c(-c2ccc(OC)cc2)sc2c(Cl)cccc12 [4-024] | 0 (Herbicidal rate of 5% or less (almost no effect)) | 4 (Herbicidal rate of 70% or more and less than 90%) | 4 (Herbicidal rate of 70% or more and less than 90%) | 5 (Herbicidal rate of 90% or more (almost completely withered)) | 0 (Herbicidal rate of 5% or less (almost no effect)) | 3 (Herbicidal rate of 40% or more and less than 70%) | 0 (Herbicidal rate of 5% or less (almost no effect)) | 4 (Herbicidal rate of 70% or more and less than 90%) | 5 (Herbicidal rate of 90% or more (almost completely withered)) | 2 (Herbicidal rate of 20% or more and less than 40%) | 4 (Herbicidal rate of 70% or more and less than 90%) | 0 (Herbicidal rate of 5% or less (almost no effect)) | 0 (Herbicidal rate of 5% or less (almost no effect)) | 3 (Herbicidal rate of 40% or more and less than 70%) | 0 (Herbicidal rate of 5% or less (almost no effect)) | 0 (Herbicidal rate of 5% or less (almost no effect)) | –
CCCC(=O)Oc1c(C)nn(C)c(=O)c1-c1c(-c2ccc(Cl)s2)sc2ccc(F)cc12 [2-391] | – | – | – | – | – | – | – | – | – | – | – | – | – | 5 (Herbicidal rate of 90% or more (almost completely withered)) | – | 5 (Herbicidal rate of 90% or more (almost completely withered)) | herbicidal effect, M: velvetleaf [1]: 3 (Herbicidal rate of 40% or more and less than 70%); K: Italian ryegrass, herbicidal effect (criteria 0-5) [2, 20]: 5 (Herbicidal rate of 90% or more (almost completely withered)); M: velvetleaf, herbicidal effect (criteria 0-5) [3, 20]: 5 (Herbicidal rate of 90% or more (almost completely withered)); herbicidal effect on E: rice flat sedge [4, 19]: 5 (Herbicidal rate of 90% or more (almost completely withered)); herbicidal effect, O: lambsquarters [5]: 4 (Herbicidal rate of 70% or more and less than 90%); herbicidal effect on D: Chinese sprangletop [6, 19]: 4 (Herbicidal rate of 70% or more and less than 90%); herbicidal effect, R: persian speedwell [7]: 3 (Herbicidal rate of 40% or more and less than 70%); L: windgrass, herbicidal effect (criteria 0-5) [8, 20]: 4 (Herbicidal rate of 70% or more and less than 90%); P: chickweed, herbicidal effect (criteria 0-5) [9, 20]: 5 (Herbicidal rate of 90% or more (almost completely withered)); herbicidal effect, G: green foxtail [10]: 4 (Herbicidal rate of 70% or more and less than 90%); H: barnyard grass, herbicidal effect (criteria 0-5) [11, 20]: 5 (Herbicidal rate of 90% or more (almost completely withered)); herbicidal effect, K: Italian ryegrass [12]: 5 (Herbicidal rate of 90% or more (almost completely withered)); herbicidal effect, L: windgrass [13]: 3 (Herbicidal rate of 40% or more and less than 70%); herbicidal effect, I: wild oat [15]: 0 (Herbicidal rate of 5% or less (almost no effect))
